ChEMBL document CHEMBL1201862, “PubChem BioAssay data set” (2004)
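Five compound concentrations were applied to cells in 96-well plates for 48 hours; endpoints were derived by simple linear interpolation of the resulting dose-response curve. GI50 marks 50% less growth.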 Active and inactive are the calls of the source. Rule as the data show it: active = GI50 up to about 1.1 µM and inactive = higher.

Legend:
Test in all cases: NCI tumour cell line growth inhibition, 48 h
[1] = test system: 786-0
[2] = test system: A498
[3] = test system: A549
[4] = test system: ACHN
[5] = test system: CAKI-1
[6] = test system: CCRF-CEM
[7] = test system: COLO 205
[8] = test system: DLD-1
[9] = test system: DMS-114
[10] = test system: DMS-273
[11] = test system: EKVX
[12] = test system: HCC 2998
[13] = test system: HCT-116
[14] = test system: HCT-15
[15] = test system: HL-60
[16] = test system: HOP-18
[17] = test system: HOP-62
[18] = test system: HOP-92
[19] = test system: HT-29
[20] = test system: IGROV-1
[21] = test system: K562
[22] = test system: KM-20L2
[23] = test system: KM12
[24] = test system: LOX IMVI
[25] = test system: LXFL 529
[26] = test system: M14
[27] = test system: M19-MEL
[28] = test system: MOLT-4
[29] = test system: Malme-3M
[30] = test system: NCI-H226
[31] = test system: NCI-H23
[32] = test system: NCI-H460
[33] = test system: NCI-H522
[34] = test system: OVCAR-3
[35] = test system: OVCAR-4
[36] = test system: OVCAR-5
[37] = test system: OVCAR-8
[38] = test system: RPMI-8226
[39] = test system: RXF 393
[40] = test system: RXF 631
[41] = test system: SF-268
[42] = test system: SF-295
[43] = test system: SF-539
[44] = test system: SK-MEL-28
[45] = test system: SK-MEL-2
[46] = test system: SK-MEL-5
[47] = test system: SN12C
[48] = test system: SNB-19
[49] = test system: SNB-75
[50] = test system: SNB-78
[51] = test system: SW-620
[52] = test system: TK-10
[53] = test system: U-251
[54] = test system: UACC-257
[55] = test system: UACC-62
[56] = test system: UO-31
[57] = test system: SK-OV-3
[58] = test system: SR

Measured: GI50

O=C(N/C(=C\c1ccc(/C=C(\NC(=O)c2ccccc2)c2nc3ccccc3s2)cc1)c1nc2ccccc2s1)c1ccccc1
inactive: [1] 1.82 µM | [2] 17.1 µM | [3] 13.5 µM | [4] 4.59 µM | [5] 14.9 µM | [6] 1.56 µM | [7] 5.12 µM | [8] 3.28 µM | [9] 11.4 µM | [10] 3.71 µM | [11] 1.83 µM | [12] 14.7 µM | [13] 8.2 µM | [15] 1.71 µM | [16] 13.2 µM | [17] 18.4 µM | [18] 12.5 µM | [19] 3.73 µM | [20] 3.85 µM | [21] 5.38 µM | [22] 2.19 µM | [23] 8.45 µM | [24] 4.21 µM | [25] 2.98 µM | [26] 3.42 µM | [27] 4.72 µM | [28] 4.99 µM | [29] 11.9 µM | [30] 19.1 µM | [31] 11.6 µM | [32] 4.25 µM | [33] 2.13 µM | [34] 2.78 µM | [35] 5.08 µM | [36] 17.2 µM | [37] 2.34 µM | [38] 3.64 µM | [39] 17.7 µM | [40] 7.96 µM | [41] 6.3 µM | [42] 4.5 µM | [43] 2.14 µM | [44] 11.1 µM | [45] 6.62 µM | [46] 4.88 µM | [47] 3.99 µM | [48] 4.09 µM | [49] 5.48 µM | [50] 20.8 µM | [51] 3.84 µM | [52] 12.7 µM | [53] 2.59 µM | [54] 5.18 µM | [55] 2.37 µM | [56] 2.86 µM
4.6 µM: [14]

NCCCCCS(=O)(=O)O
> 100 µM: [14]
inactive: [1] > 100 µM | [2] > 100 µM | [3] > 100 µM | [4] > 100 µM | [6] > 100 µM | [7] > 100 µM | [8] > 100 µM | [9] > 100 µM | [10] > 100 µM | [11] > 100 µM | [12] > 100 µM | [13] > 100 µM | [15] > 100 µM | [16] > 100 µM | [17] > 100 µM | [19] > 100 µM | [20] > 100 µM | [21] > 100 µM | [22] > 100 µM | [23] > 100 µM | [24] > 100 µM | [25] > 100 µM | [26] > 100 µM | [27] > 100 µM | [28] > 100 µM | [29] > 100 µM | [31] > 100 µM | [32] > 100 µM | [33] > 100 µM | [34] > 100 µM | [35] > 100 µM | [36] > 100 µM | [37] > 100 µM | [39] > 100 µM | [40] > 100 µM | [41] > 100 µM | [43] > 100 µM | [44] > 100 µM | [45] > 100 µM | [46] > 100 µM | [57] > 100 µM | [47] > 100 µM | [48] > 100 µM | [49] > 100 µM | [50] > 100 µM | [58] > 100 µM | [51] > 100 µM | [52] > 100 µM | [53] > 100 µM | [54] > 100 µM | [55] > 100 µM | [56] > 100 µM

COC(=O)C1=C(C(=O)OC)C(C(=O)OC)C(C(=O)OC)=C1C(=O)OC
inactive: [1] > 100 µM | [3] > 100 µM | [4] > 100 µM | [5] > 100 µM | [6] > 100 µM | [7] > 100 µM | [8] > 100 µM | [9] > 100 µM | [10] > 100 µM | [11] > 100 µM | [12] > 100 µM | [15] > 100 µM | [16] > 100 µM | [17] > 100 µM | [18] > 100 µM | [19] > 100 µM | [20] > 100 µM | [21] > 100 µM | [22] > 100 µM | [23] > 100 µM | [24] > 100 µM | [25] > 100 µM | [26] > 100 µM | [28] > 100 µM | [29] > 100 µM | [31] > 100 µM | [32] > 100 µM | [33] > 100 µM | [34] > 100 µM | [35] > 100 µM | [36] > 100 µM | [37] > 100 µM | [38] > 100 µM | [39] > 100 µM | [40] > 100 µM | [41] > 100 µM | [42] > 100 µM | [43] > 100 µM | [44] > 100 µM | [45] > 100 µM | [46] > 100 µM | [57] > 100 µM | [47] > 100 µM | [48] > 100 µM | [49] > 100 µM | [51] > 100 µM | [52] > 100 µM | [53] > 100 µM | [54] > 100 µM | [55] > 100 µM | [56] > 100 µM
> 100 µM: [14]
